Assays:
Test in all cases: relative viability (nuclei count vs DMSO), 5 days (fraction); higher = more cells survive
JZL-184 = compound: C1CN(CCC1C(C2=CC3=C(C=C2)OCO3)(C4=CC5=C(C=C4)OCO5)O)C(=O)OC6=CC=C(C=C6)[N+](=O)[O-] [JZL-184]
Procedure, shortened: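 Acceptance criteria were a control CV below 25% and at least one doubling per plate. Lung cancer cell lines in 1536-well plates got five library-drug doses (not always all listed) √10 apart by pinning and were left 5 days with no medium change. Viability divides treated-well nuclei by vehicle-well nuclei and is the median across plates. Nuclei were counted by MetaXpress from 4× Hoechst images.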

JZL-184 + Bortezomib = compound: C1CN(CCC1C(C2=CC3=C(C=C2)OCO3)(C4=CC5=C(C=C4)OCO5)O)C(=O)OC6=CC=C(C=C6)[N+](=O)[O-] [JZL-184] + CC(C)C[C@H](NC(=O)[C@H](Cc1ccccc1)NC(=O)c1cnccn1)B(O)O [Bortezomib] (partner 0.002 µM)
Procedure, shortened: (§1)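 Lung cancer cell lines in 1536-well plates were dosed by pin tool the day after seeding, either with one drug alone or with a fixed anchor-drug dose plus five library-drug doses (not always all listed) in √10 steps. After 5 days, cells were fixed and their nuclei stained in one step (final 0.05% Triton X-100, 1% formaldehyde, 1 ug/ml Hoechst), then counted on 4× images. Relative viability is the nuclei count in treated wells divided by that in vehicle wells. Values are medians of duplicate plates.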

JZL-184 + Navitoclax = compound: C1CN(CCC1C(C2=CC3=C(C=C2)OCO3)(C4=CC5=C(C=C4)OCO5)O)C(=O)OC6=CC=C(C=C6)[N+](=O)[O-] [JZL-184] + CC1(C)CCC(c2ccc(Cl)cc2)=C(CN2CCN(c3ccc(C(=O)NS(=O)(=O)c4ccc(N[C@H](CCN5CCOCC5)CSc5ccccc5)c(S(=O)(=O)C(F)(F)F)c4)cc3)CC2)C1 [Navitoclax] (partner 0.5 µM)
Procedure, shortened: as §1

JZL-184 + Foretinib = compound: C1CN(CCC1C(C2=CC3=C(C=C2)OCO3)(C4=CC5=C(C=C4)OCO5)O)C(=O)OC6=CC=C(C=C6)[N+](=O)[O-] [JZL-184] + COc1cc2c(Oc3ccc(NC(=O)C4(C(=O)Nc5ccc(F)cc5)CC4)cc3F)ccnc2cc1OCCCN1CCOCC1 [Foretinib] (partner 0.25 µM)
Procedure, shortened: as §1

JZL-184 + Lapatinib = compound: C1CN(CCC1C(C2=CC3=C(C=C2)OCO3)(C4=CC5=C(C=C4)OCO5)O)C(=O)OC6=CC=C(C=C6)[N+](=O)[O-] [JZL-184] + CS(=O)(=O)CCNCc1ccc(-c2ccc3ncnc(Nc4ccc(OCc5cccc(F)c5)c(Cl)c4)c3c2)o1 [Lapatinib] (partner 2 µM)
Procedure, shortened: as §1

JZL-184 + Pictilisib = compound: C1CN(CCC1C(C2=CC3=C(C=C2)OCO3)(C4=CC5=C(C=C4)OCO5)O)C(=O)OC6=CC=C(C=C6)[N+](=O)[O-] [JZL-184] + CS(=O)(=O)N1CCN(Cc2cc3nc(-c4cccc5[nH]ncc45)nc(N4CCOCC4)c3s2)CC1 [Pictilisib] (partner 1 µM)
Procedure, shortened: as §1

JZL-184 + Crizotinib = compound: C1CN(CCC1C(C2=CC3=C(C=C2)OCO3)(C4=CC5=C(C=C4)OCO5)O)C(=O)OC6=CC=C(C=C6)[N+](=O)[O-] [JZL-184] + C[C@@H](Oc1cc(-c2cnn(C3CCNCC3)c2)cnc1N)c1c(Cl)ccc(F)c1Cl [Crizotinib] (partner 1 µM)
Procedure, shortened: as §1

JZL-184 + Linsitinib = compound: C1CN(CCC1C(C2=CC3=C(C=C2)OCO3)(C4=CC5=C(C=C4)OCO5)O)C(=O)OC6=CC=C(C=C6)[N+](=O)[O-] [JZL-184] + C[C@]1(O)C[C@@H](c2nc(-c3ccc4ccc(-c5ccccc5)nc4c3)c3c(N)nccn32)C1 [Linsitinib] (partner 1 µM)
Procedure, shortened: as §1

JZL-184 + Alpelisib = compound: C1CN(CCC1C(C2=CC3=C(C=C2)OCO3)(C4=CC5=C(C=C4)OCO5)O)C(=O)OC6=CC=C(C=C6)[N+](=O)[O-] [JZL-184] + Cc1nc(NC(=O)N2CCC[C@H]2C(N)=O)sc1-c1ccnc(C(C)(C)C(F)(F)F)c1 [Alpelisib] (partner 2 µM)
Procedure, shortened: as §1

JZL-184 + Olaparib = compound: C1CN(CCC1C(C2=CC3=C(C=C2)OCO3)(C4=CC5=C(C=C4)OCO5)O)C(=O)OC6=CC=C(C=C6)[N+](=O)[O-] [JZL-184] + O=C(c1cc(Cc2n[nH]c(=O)c3ccccc23)ccc1F)N1CCN(C(=O)C2CC2)CC1 [Olaparib] (partner 8 µM)
Procedure, shortened: as §1

NCI-H1299
relative viability (JZL-184; 0.04 µM): 1.06 | relative viability (JZL-184; 0.4 µM): 1 | relative viability (JZL-184; 1.265 µM): 1.05 | relative viability (JZL-184; 4 µM): 0.977 | relative viability (JZL-184 + Bortezomib; first compound 0.04 µM): 1.04 | relative viability (JZL-184 + Bortezomib; first compound 0.4 µM): 0.997 | relative viability (JZL-184 + Bortezomib; first compound 1.265 µM): 1.04 | relative viability (JZL-184 + Bortezomib; first compound 4 µM): 0.979 | relative viability (JZL-184 + Navitoclax; first compound 0.04 µM): 1.06 | relative viability (JZL-184 + Navitoclax; first compound 0.4 µM): 1.05 | relative viability (JZL-184 + Navitoclax; first compound 1.265 µM): 1.06 | relative viability (JZL-184 + Navitoclax; first compound 4 µM): 1.05 | relative viability (JZL-184 + Foretinib; first compound 0.04 µM): 1.11 | relative viability (JZL-184 + Foretinib; first compound 0.4 µM): 1.06 | relative viability (JZL-184 + Foretinib; first compound 1.265 µM): 1.14 | relative viability (JZL-184 + Foretinib; first compound 4 µM): 1.04 | relative viability (JZL-184 + Lapatinib; first compound 0.04 µM): 0.954 | relative viability (JZL-184 + Lapatinib; first compound 0.4 µM): 0.924 | relative viability (JZL-184 + Lapatinib; first compound 1.265 µM): 0.969 | relative viability (JZL-184 + Lapatinib; first compound 4 µM): 0.912 | relative viability (JZL-184 + Pictilisib; first compound 0.04 µM): 0.922 | relative viability (JZL-184 + Pictilisib; first compound 0.4 µM): 0.82 | relative viability (JZL-184 + Pictilisib; first compound 1.265 µM): 0.779 | relative viability (JZL-184 + Pictilisib; first compound 4 µM): 0.655 | relative viability (JZL-184 + Crizotinib; first compound 0.04 µM): 0.982 | relative viability (JZL-184 + Crizotinib; first compound 0.4 µM): 0.944 | relative viability (JZL-184 + Crizotinib; first compound 1.265 µM): 0.915 | relative viability (JZL-184 + Crizotinib; first compound 4 µM): 0.884 | relative viability (JZL-184 + Linsitinib; first compound 0.04 µM): 1.16 | relative viability (JZL-184 + Linsitinib; first compound 0.4 µM): 1.01 | relative viability (JZL-184 + Linsitinib; first compound 1.265 µM): 0.95 | relative viability (JZL-184 + Linsitinib; first compound 4 µM): 0.974 | relative viability (JZL-184 + Alpelisib; first compound 0.04 µM): 1.14 | relative viability (JZL-184 + Alpelisib; first compound 0.4 µM): 1.01 | relative viability (JZL-184 + Alpelisib; first compound 1.265 µM): 1.08 | relative viability (JZL-184 + Alpelisib; first compound 4 µM): 1.04 | relative viability (JZL-184 + Olaparib; first compound 0.04 µM): 1.01 | relative viability (JZL-184 + Olaparib; first compound 0.4 µM): 0.937 | relative viability (JZL-184 + Olaparib; first compound 1.265 µM): 0.936 | relative viability (JZL-184 + Olaparib; first compound 4 µM): 0.911

Reference: the supplement of paper PMC10307832
